Data as given in article PMC2655231 (Cancer research, 2009).

How the values were obtained:
Assay in all cases: in vitro radiometric kinase assay
Assay type in all cases: biochemical
Aurora A kinase = target: T1, Aurora A kinase (Homo sapiens, UniProt O14965)
T1 sequence (O14965 122-403): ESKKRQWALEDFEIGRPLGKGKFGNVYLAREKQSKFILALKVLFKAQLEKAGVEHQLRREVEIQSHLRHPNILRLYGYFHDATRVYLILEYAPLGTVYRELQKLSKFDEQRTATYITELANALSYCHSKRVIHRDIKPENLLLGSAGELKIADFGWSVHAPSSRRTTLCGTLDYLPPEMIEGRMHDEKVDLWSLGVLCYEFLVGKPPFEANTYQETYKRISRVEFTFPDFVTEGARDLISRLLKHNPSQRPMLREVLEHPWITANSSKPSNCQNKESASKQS
T1 sequence (Q9ULW0 1-747 partner): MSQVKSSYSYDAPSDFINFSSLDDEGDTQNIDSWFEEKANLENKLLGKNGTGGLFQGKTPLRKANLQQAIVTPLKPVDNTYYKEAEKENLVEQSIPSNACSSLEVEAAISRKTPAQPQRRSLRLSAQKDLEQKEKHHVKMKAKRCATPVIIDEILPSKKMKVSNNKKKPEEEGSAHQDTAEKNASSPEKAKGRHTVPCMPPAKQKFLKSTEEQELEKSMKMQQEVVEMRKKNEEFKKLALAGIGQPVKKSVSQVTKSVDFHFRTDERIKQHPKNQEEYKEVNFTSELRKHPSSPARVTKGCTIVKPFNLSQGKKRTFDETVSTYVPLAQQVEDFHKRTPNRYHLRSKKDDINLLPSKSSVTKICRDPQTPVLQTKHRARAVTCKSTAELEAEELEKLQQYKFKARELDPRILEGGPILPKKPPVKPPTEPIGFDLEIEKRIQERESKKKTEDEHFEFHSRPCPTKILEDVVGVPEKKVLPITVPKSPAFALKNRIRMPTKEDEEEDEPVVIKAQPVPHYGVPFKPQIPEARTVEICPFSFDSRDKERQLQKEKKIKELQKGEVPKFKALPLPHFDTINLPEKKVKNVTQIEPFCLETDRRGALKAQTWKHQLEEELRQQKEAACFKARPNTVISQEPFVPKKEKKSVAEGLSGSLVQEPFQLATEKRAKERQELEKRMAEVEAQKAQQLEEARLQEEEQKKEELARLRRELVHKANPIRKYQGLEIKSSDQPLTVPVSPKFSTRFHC

Cdk1/cyclinB = Cdk1/cyclinB (Homo sapiens, UniProt P06493)
Cdk1/cyclinB, sequence (P06493 whole entry): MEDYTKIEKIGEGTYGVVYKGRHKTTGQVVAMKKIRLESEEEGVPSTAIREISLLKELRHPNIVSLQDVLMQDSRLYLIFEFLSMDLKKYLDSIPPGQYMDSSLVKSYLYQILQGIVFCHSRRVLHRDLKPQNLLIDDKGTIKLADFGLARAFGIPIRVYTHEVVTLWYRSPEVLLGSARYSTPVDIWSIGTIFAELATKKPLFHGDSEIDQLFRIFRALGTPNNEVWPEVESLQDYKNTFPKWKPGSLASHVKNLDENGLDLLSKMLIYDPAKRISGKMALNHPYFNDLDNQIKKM
Cdk1/cyclinB, sequence (P14635 whole entry partner): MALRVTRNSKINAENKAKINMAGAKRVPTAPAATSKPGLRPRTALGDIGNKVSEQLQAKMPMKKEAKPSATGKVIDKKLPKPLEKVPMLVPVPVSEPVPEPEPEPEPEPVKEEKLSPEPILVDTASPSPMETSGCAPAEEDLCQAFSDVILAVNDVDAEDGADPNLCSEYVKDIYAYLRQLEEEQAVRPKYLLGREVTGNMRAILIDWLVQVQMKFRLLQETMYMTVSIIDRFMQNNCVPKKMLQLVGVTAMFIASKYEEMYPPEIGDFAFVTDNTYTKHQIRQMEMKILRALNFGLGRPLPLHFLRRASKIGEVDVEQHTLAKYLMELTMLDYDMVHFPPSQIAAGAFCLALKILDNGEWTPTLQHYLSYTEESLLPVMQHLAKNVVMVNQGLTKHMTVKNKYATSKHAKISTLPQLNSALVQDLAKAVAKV

Aurora B kinase = Aurora B kinase (Xenopus laevis, UniProt Q6DE08)
Aurora B kinase, sequence (Q6DE08 60-361 limits assumed): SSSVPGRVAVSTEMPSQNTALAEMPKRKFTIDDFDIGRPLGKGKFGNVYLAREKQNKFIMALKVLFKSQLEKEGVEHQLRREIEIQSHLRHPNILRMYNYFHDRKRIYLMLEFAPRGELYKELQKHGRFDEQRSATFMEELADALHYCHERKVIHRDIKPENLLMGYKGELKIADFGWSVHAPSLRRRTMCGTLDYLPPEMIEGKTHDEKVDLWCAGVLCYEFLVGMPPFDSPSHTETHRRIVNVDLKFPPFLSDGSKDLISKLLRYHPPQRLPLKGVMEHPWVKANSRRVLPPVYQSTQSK
Aurora B kinase, sequence (O13024 whole entry partner): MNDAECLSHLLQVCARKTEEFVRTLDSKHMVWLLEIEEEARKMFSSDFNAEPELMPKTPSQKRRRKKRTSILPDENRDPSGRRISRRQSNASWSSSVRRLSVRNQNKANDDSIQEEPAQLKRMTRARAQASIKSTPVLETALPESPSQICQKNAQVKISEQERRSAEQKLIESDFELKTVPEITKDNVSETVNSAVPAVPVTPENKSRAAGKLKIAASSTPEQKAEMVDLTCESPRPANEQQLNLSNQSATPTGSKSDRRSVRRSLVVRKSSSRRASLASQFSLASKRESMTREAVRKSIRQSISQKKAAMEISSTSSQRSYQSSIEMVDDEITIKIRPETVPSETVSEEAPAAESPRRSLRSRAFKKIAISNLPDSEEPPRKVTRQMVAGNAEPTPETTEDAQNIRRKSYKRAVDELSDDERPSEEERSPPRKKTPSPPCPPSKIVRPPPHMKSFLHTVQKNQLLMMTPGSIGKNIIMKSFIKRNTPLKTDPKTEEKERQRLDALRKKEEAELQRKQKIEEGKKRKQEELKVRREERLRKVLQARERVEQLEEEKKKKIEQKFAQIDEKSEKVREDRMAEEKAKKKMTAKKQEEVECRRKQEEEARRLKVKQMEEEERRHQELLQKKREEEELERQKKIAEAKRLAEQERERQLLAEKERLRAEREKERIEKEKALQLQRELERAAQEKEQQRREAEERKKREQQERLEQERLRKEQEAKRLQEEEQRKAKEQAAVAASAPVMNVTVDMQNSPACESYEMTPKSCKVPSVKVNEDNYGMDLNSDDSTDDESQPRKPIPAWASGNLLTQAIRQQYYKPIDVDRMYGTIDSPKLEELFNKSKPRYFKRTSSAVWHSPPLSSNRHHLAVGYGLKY

Cdk5/p25 = Cdk5/p25 (Homo sapiens, UniProt Q00535)
Cdk5/p25, sequence (Q00535 whole entry): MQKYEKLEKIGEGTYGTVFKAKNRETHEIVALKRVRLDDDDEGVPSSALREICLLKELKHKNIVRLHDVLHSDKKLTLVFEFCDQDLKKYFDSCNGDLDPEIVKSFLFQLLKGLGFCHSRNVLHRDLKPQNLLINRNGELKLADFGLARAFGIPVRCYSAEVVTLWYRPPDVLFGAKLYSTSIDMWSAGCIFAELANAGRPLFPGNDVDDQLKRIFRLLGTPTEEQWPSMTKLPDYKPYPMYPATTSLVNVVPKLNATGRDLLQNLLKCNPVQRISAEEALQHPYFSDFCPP
Cdk5/p25, sequence (Q15078 2-307 partner): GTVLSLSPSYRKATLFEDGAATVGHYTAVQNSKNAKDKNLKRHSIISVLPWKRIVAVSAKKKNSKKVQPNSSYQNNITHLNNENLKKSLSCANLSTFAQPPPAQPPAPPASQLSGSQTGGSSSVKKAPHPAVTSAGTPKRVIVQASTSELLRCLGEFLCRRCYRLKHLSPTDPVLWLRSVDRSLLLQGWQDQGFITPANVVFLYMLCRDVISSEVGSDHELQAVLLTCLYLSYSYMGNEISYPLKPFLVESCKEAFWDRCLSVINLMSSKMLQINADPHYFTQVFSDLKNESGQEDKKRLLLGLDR

## COc1cc(/C=N/NC(=O)c2sc(N)nc2C)ccc1O [OM137]
Aurora A kinase
  IC50: 21.7 µM
Cdk1/cyclinB
  IC50: ~20 µM
Aurora B kinase
  IC50: 2.4 µM
Cdk5/p25
  IC50: ~20 µM
